Data on 24 molecules can be found in US20230081426A1, “COMPOUNDS AND METHODS FOR KRAS MODULATION AND INDICATIONS THEREFOR” (Plexxikon Inc., priority 2020, published 2023).

Broadly, the IC50 is the concentration at which inhibition is half-maximal.

The target of experiment [1] is T1, G12D-mutant human KRAS (amino acid residues 1-188) (Homo sapiens, UniProt P01116, G12D).
T1 construct: G12D or G12C-mutant human KRAS (amino acid residues 1-188) with FLAG tag; made in house; host or cells: E. coli
T1 sequence (P01116 1-188 isoform P01116-2 G12D): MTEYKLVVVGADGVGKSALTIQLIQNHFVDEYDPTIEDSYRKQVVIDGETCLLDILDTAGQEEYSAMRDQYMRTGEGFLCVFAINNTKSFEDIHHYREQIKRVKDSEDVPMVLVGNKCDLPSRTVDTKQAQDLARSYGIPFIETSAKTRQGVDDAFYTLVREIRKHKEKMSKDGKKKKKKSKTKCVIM
As to the kind of experiment: KRAS Binding Disruption Assay (AlphaScreen; biotinylated KRpep-2d analogue or RAF1-RBD), G12D. As to conditions: KRAS G12D; geometric mean; read-out: KRAS GMean IC50 (uM) MUTATION: G12D. A digest of the protocol: (§1)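 Displacement format with mutant KRAS, biotinylated KRpep-2d analogue or RAF1-RBD (5-20 nM each) at pH 7.5 with 5 mM MgCl2.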
On the technique in general: Alpha assays give light when donor and acceptor beads are brought close together.

Experiment [2] deals with T2, G12C-mutant human KRAS (amino acid residues 1-188) (Homo sapiens, UniProt P01116, G12C).
T2 construct: G12D or G12C-mutant human KRAS (amino acid residues 1-188) with FLAG tag; made in house; host or cells: E. coli
T2 sequence (P01116 1-188 isoform P01116-2 G12C): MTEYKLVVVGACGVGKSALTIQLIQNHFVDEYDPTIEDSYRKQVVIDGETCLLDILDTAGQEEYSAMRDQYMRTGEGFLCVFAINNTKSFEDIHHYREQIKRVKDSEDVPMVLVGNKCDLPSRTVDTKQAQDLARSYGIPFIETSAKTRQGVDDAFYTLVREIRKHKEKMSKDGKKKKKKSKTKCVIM
As to the kind of experiment: KRAS Binding Disruption Assay (AlphaScreen; biotinylated KRpep-2d analogue or RAF1-RBD), G12C. As to conditions: geometric mean, read-out: KRAS GMean IC50 (uM) MUTATION: G12C. The method, boiled down: as §1

Turning to `CN1CCC[C@H]1COc1nc(N2C[C@H]3CC[C@@H](C2)N3)c2ccc(-c3cccc4ccccc34)c(F)c2n1` [P-0783, 4-((1R,5S)-3,8-diazabicyclo[3.2.1]octan-3-yl)-8-fluoro-2-(((S)-1-methylpyrrolidin-2-yl)methoxy)-7-(naphthalen-1-yl)quinazoline], the IC50 in experiment [1] was 0.0001 to 10 µM; in experiment [2] it was 100 to 1000 µM.

On to `OCCOc1nc(N2C[C@H]3CC[C@@H](C2)N3)c2ccc(-c3cc(O)cc4ccccc34)c(F)c2n1` [P-0784, 4-(4-((1R,5S)-3,8-diazabicyclo[3.2.1]octan-3-yl)-8-fluoro-2-(2-hydroxyethoxy)quinazolin-7-yl)naphthalen-2-ol], for which the IC50 in experiment [1] is 0.0001 to 10 µM; in experiment [2], 10 to 100 µM.

As for `CC1(COc2nc(N3C[C@H]4CC[C@@H](C3)N4)c3ccc(-c4cc(O)cc5ccccc45)c(F)c3n2)COC1` [P-0785, 4-(4-((1R,5S)-3,8-diazabicyclo[3.2.1]octan-3-yl)-8-fluoro-2-((3-methyloxetan-3-yl)methoxy)quinazolin-7-yl)naphthalen-2-ol], the IC50 in experiment [1] and in experiment [2] was 100 to 1000 µM throughout.

For the molecule `Cn1cncc1COc1nc(N2C[C@H]3CC[C@@H](C2)N3)c2ccc(-c3cc(O)cc4ccccc34)c(F)c2n1` [P-0786, 4-(4-((1R,5S)-3,8-diazabicyclo[3.2.1]octan-3-yl)-8-fluoro-2-((1-methyl-1H-imidazol-5-yl)methoxy)quinazolin-7-yl)naphthalen-2-ol], the IC50 in experiment [1] and in experiment [2] was 0.0001 to 10 µM each time.

For the molecule `Oc1cc(-c2ccc3c(N4C[C@H]5CC[C@@H](C4)N5)nc(OC4CCC(O)CC4)nc3c2F)c2ccccc2c1` (stereo partly drawn) [P-0787, 4-(4-((1R,5S)-3,8-diazabicyclo[3.2.1]octan-3-yl)-8-fluoro-2-((4-hydroxycyclohexyl)oxy)quinazolin-7-yl)naphthalen-2-ol], the IC50 in experiment [1] lay within 0.0001 to 10 µM; in experiment [2] it was 10 to 100 µM.

Turning to `Fc1cc2c(N3C[C@H]4CC[C@@H](C3)N4)nc(OCC34CCCN3CCC4)nc2c(F)c1-c1c[nH]c2ccc(F)c(F)c12` [P-0788, 4-((1R,5S)-3,8-diazabicyclo[3.2.1]octan-3-yl)-7-(4,5-difluoro-1H-indol-3-yl)-6,8-difluoro-2-((tetrahydro-1H-pyrrolizin-7a(5H)-yl)methoxy)quinazoline], the IC50 in experiment [1] and in experiment [2] was 0.0001 to 10 µM throughout.

As for `Fc1cc2[nH]cc(-c3c(F)cc4c(N5C[C@H]6CC[C@@H](C5)N6)nc(OCC56CCCN5CCC6)nc4c3F)c2cc1F` [P-0789, 4-((1R,5S)-3,8-diazabicyclo[3.2.1]octan-3-yl)-7-(5,6-difluoro-1H-indol-3-yl)-6,8-difluoro-2-((tetrahydro-1H-pyrrolizin-7a(5H)-yl)methoxy)quinazoline], the IC50 in experiment [1] fell in the range of 0.0001 to 10 µM; in experiment [2] it was 10 to 100 µM.

Take `Cc1cccc2[nH]cc(-c3c(F)cc4c(N5C[C@H]6CC[C@@H](C5)N6)nc(OCC56CCCN5CCC6)nc4c3F)c12` [P-0790, 4-((1R,5S)-3,8-diazabicyclo[3.2.1]octan-3-yl)-6,8-difluoro-7-(4-methyl-1H-indol-3-yl)-2-((tetrahydro-1H-pyrrolizin-7a(5H)-yl)methoxy)quinazoline]: the IC50 in experiment [1] and in experiment [2] was 0.0001 to 10 µM each time.

For `Oc1cc(-c2ccc3c(N4C[C@H]5CC[C@@H](C4)N5)nc(N4CCC(O)C4)nc3c2F)c2ccccc2c1` (stereo partly drawn) [P-0791, 1-(4-((1R,5S)-3,8-diazabicyclo[3.2.1]octan-3-yl)-8-fluoro-7-(3-hydroxynaphthalen-1-yl)quinazolin-2-yl)pyrrolidin-3-ol], the IC50 fell in the range of 0.0001 to 10 µM in experiment [1] and 100 to 1000 µM in experiment [2].

For the molecule `CC1(O)CN(c2nc(N3C[C@H]4CC[C@@H](C3)N4)c3ccc(-c4cc(O)cc5ccccc45)c(F)c3n2)C1` [P-0792, 1-(4-((1R,5S)-3,8-diazabicyclo[3.2.1]octan-3-yl)-8-fluoro-7-(3-hydroxynaphthalen-1-yl)quinazolin-2-yl)-3-methylazetidin-3-ol], the figures for the IC50 in experiment [1] and in experiment [2] were 0.0001 to 10 µM and 10 to 100 µM, respectively.

In the case of `NC1CN(c2nc(N3C[C@H]4CC[C@@H](C3)N4)c3ccc(-c4cc(O)cc5ccccc45)c(F)c3n2)C1` [P-0793, 4-(2-(3-aminoazetidin-1-yl)-4-((1R,5S)-3,8-diazabicyclo[3.2.1]octan-3-yl)-8-fluoroquinazolin-7-yl)naphthalen-2-ol], the IC50 in experiment [1] lay within 0.0001 to 10 µM; in experiment [2], 10 to 100 µM.

Turning to `CN(C)C1CN(c2nc(N3C[C@H]4CC[C@@H](C3)N4)c3ccc(-c4cc(O)cc5ccccc45)c(F)c3n2)C1` [P-0794, 4-(4-((1R,5S)-3,8-diazabicyclo[3.2.1]octan-3-yl)-2-(3-(dimethylamino)azetidin-1-yl)-8-fluoroquinazolin-7-yl)naphthalen-2-ol], the IC50 in experiment [1] was 0.0001 to 10 µM; in experiment [2], 10 to 100 µM.

Take `Cc1cccc2c(-c3c(F)cc4c(N5C[C@H]6CC[C@@H](C5)N6)nc(OC[C@@H]5CCCN5C)nc4c3F)c[nH]c12` [P-0795, 4-((1R,5S)-3,8-diazabicyclo[3.2.1]octan-3-yl)-6,8-difluoro-7-(7-methyl-1H-indol-3-yl)-2-(((S)-1-methylpyrrolidin-2-yl)methoxy)quinazoline]: the IC50 in experiment [1] and in experiment [2] was 10 to 100 µM in each case.

Turning to `CN1CCC[C@H]1COc1nc(N2C[C@H]3CC[C@@H](C2)N3)c2cc(F)c(-c3c[nH]c4cc(Cl)ccc34)c(F)c2n1` [P-0796, 4-((1R,5S)-3,8-diazabicyclo[3.2.1]octan-3-yl)-7-(6-chloro-1H-indol-3-yl)-6,8-difluoro-2-(((S)-1-methylpyrrolidin-2-yl)methoxy)quinazoline], the IC50 in experiment [1] lay in the range of 0.0001 to 10 µM; in experiment [2], 100 to 1000 µM.

On to `COc1cccc2[nH]cc(-c3c(F)cc4c(N5C[C@H]6CC[C@@H](C5)N6)nc(OC[C@@H]5CCCN5C)nc4c3F)c12` [P-0797, 4-((1R,5S)-3,8-diazabicyclo[3.2.1]octan-3-yl)-6,8-difluoro-7-(4-methoxy-1H-indol-3-yl)-2-(((S)-1-methylpyrrolidin-2-yl)methoxy)quinazoline], for which the IC50 lay in the range of 0.0001 to 10 µM in experiment [1] and 10 to 100 µM in experiment [2].

Regarding `CN1CCC[C@H]1COc1nc(N2C[C@H]3CC[C@@H](C2)N3)c2cc(F)c(-c3c[nH]c4cc(C#N)ccc34)c(F)c2n1` [P-0798, 3-(4-((1R,5S)-3,8-diazabicyclo[3.2.1]octan-3-yl)-6,8-difluoro-2-(((S)-1-methylpyrrolidin-2-yl)methoxy)quinazolin-7-yl)-1H-indole-6-carbonitrile], the results for the IC50 in experiment [1] and in experiment [2] were 10 to 100 µM and 100 to 1000 µM, respectively.

As for `COc1cccc2c(-c3c(F)cc4c(N5C[C@H]6CC[C@@H](C5)N6)nc(OC[C@@H]5CCCN5C)nc4c3F)c[nH]c12` [P-0799, 4-((1R,5S)-3,8-diazabicyclo[3.2.1]octan-3-yl)-6,8-difluoro-7-(7-methoxy-1H-indol-3-yl)-2-(((S)-1-methylpyrrolidin-2-yl)methoxy)quinazoline], the figures for the IC50 in experiment [1] and in experiment [2] were 10 to 100 µM and 100 to 1000 µM, respectively.

For `CN1CCC[C@H]1COc1nc(N2C[C@H]3CC[C@@H](C2)N3)c2cc(F)c(-c3c[nH]c4c(Cl)cccc34)c(F)c2n1` [P-0800, 4-((1R,5S)-3,8-diazabicyclo[3.2.1]octan-3-yl)-7-(7-chloro-1H-indol-3-yl)-6,8-difluoro-2-(((S)-1-methylpyrrolidin-2-yl)methoxy)quinazoline], the IC50 in experiment [1] lay in the range of 10 to 100 µM; in experiment [2] it was 100 to 1000 µM.

In the case of `CN1CCC[C@H]1COc1nc(N2C[C@H]3CC[C@@H](C2)N3)c2cc(F)c(-c3cn(C)c4ccccc34)c(F)c2n1` [P-0801, 4-((1R,5S)-3,8-diazabicyclo[3.2.1]octan-3-yl)-6,8-difluoro-7-(1-methyl-1H-indol-3-yl)-2-(((S)-1-methylpyrrolidin-2-yl)methoxy)quinazoline], the IC50 is 10 to 100 µM in experiment [1] and 100 to 1000 µM in experiment [2].

Take `O=C1CCC(COc2nc(N3C[C@H]4CC[C@@H](C3)N4)c3ccc(-c4cc(O)cc5ccccc45)c(F)c3n2)N1` (stereo partly drawn) [P-0802, 5-(((4-((1R,5S)-3,8-diazabicyclo[3.2.1]octan-3-yl)-8-fluoro-7-(3-hydroxynaphthalen-1-yl)quinazolin-2-yl)oxy)methyl)pyrrolidin-2-one]: the IC50 was in the range of 0.0001 to 10 µM in experiment [1] and 10 to 100 µM in experiment [2].

In the case of `Oc1cc(-c2ccc3c(N4C[C@H]5CC[C@@H](C4)N5)nc(OCCn4ccnc4)nc3c2F)c2ccccc2c1` [P-0803, 4-(2-(2-(1H-imidazol-1-yl)ethoxy)-4-((1R,5S)-3,8-diazabicyclo[3.2.1]octan-3-yl)-8-fluoroquinazolin-7-yl)naphthalen-2-ol], the IC50 in experiment [1] and in experiment [2] was 0.0001 to 10 µM each time.

In the case of `Oc1cc(-c2ccc3c(N4C[C@H]5CC[C@@H](C4)N5)nc(OCc4ncco4)nc3c2F)c2ccccc2c1` [P-0804, 4-(4-((1R,5S)-3,8-diazabicyclo[3.2.1]octan-3-yl)-8-fluoro-2-(oxazol-2-ylmethoxy)quinazolin-7-yl)naphthalen-2-ol], the IC50 in experiment [1] was in the range of 0.0001 to 10 µM; in experiment [2], 10 to 100 µM.

Consider `Oc1cc(-c2ccc3c(N4C[C@H]5CC[C@@H](C4)N5)nc(OCC4CCOCC4)nc3c2F)c2ccccc2c1` [P-0805, 4-(4-((1R,5S)-3,8-diazabicyclo[3.2.1]octan-3-yl)-8-fluoro-2-((tetrahydro-2H-pyran-4-yl)methoxy)quinazolin-7-yl)naphthalen-2-ol], for which the IC50 in experiment [1] was 0.0001 to 10 µM; in experiment [2] it was 10 to 100 µM.

Regarding `Fc1cc(F)c2c(-c3c(F)cc4c(N5C[C@H]6CC[C@@H](C5)N6)nc(OCC56CCCN5CCC6)nc4c3F)c[nH]c2c1` [P-0806, 4-((1R,5S)-3,8-diazabicyclo[3.2.1]octan-3-yl)-7-(4,6-difluoro-1H-indol-3-yl)-6,8-difluoro-2-((tetrahydro-1H-pyrrolizin-7a(5H)-yl)methoxy)quinazoline], the IC50 in experiment [1] and in experiment [2] was 0.0001 to 10 µM throughout.
